Experimental data taken from PMC9784828, “Antimicrobial Activity of Peptide-Coupled Antisense Peptide Nucleic Acids in Streptococcus pneumoniae” (Microbiology Spectrum, 2022).

Columns and labels:
S. pneumoniae TIGR4 [1] = test: In vitro time-killing assay (killing kinetics); type: cell-based, Streptococcus pneumoniae; conditions: 10 μM, samples every 2 h up to 12 h, n = 3
Description: The antimicrobial activity kinetics of TAT- and (RXR)4XB-conjugated anti-gyrA PNA constructs in S. pneumoniae TIGR4 were studied using an in vitro time-killing assay. Bacteria were treated with 10 μM CPP-antisense PNAs or scrambled control PNAs (Fig. 2). Samples were collected every 2 h following antisense treatment. CFU/mL was determined by plating of serial dilutions and plotted over time. […] In contrast, (RXR)4XB-conjugated anti-gyrA PNA treatment led to a continuous reduction in S. pneumoniae CFU until complete eradication after 12 h.
For monitoring of killing kinetics, samples were collected 2 to 12 h post-treatment. Viable cell counts were determined by plating appropriate dilutions on BHI agar plates. CFU were determined by visual inspection following overnight incubation at 37°C under a 5% CO2 atmosphere. At time point 0, the viable cell count corresponded to 1 × 10^5 to 3 × 10^5 CFU/mL.

[2] = system: G. mellonella larvae infected with S. pneumoniae TIGR4; test: G. mellonella infection model, bacterial load; type: in vivo, Galleria mellonella; conditions: 24 h postinfection
Description: To establish the antibacterial effect of PNAs in the invertebrate infection model, we assessed the bacterial loads in infected larvae (Fig. 6). Larvae were infected and subsequently treated with NaCl (mock), 10 nmol CPP-PNA, or levofloxacin (positive control), respectively. From each group, four larvae were homogenized at 24 h postinfection. CFU/larva were determined following serial dilutions of the suspension and plating on selective medium. Treatment with (RXR)4XB-anti-gyrA caused a log CFU reduction of 1 compared to that in the mock-treated larvae. The addition of 1 or 10 μg levofloxacin led to a log CFU reduction of 2 or 6, respectively.
For determination of bacterial load, larvae were infected and subsequently treated with NaCl (mock), CPP-PNAs, or levofloxacin (positive control). At 24 h after infection, larvae were homogenized. Following serial dilution, the suspension was plated on selective medium (BD Columbia CNA Agar with 5% sheep blood; Becton Dickinson GmbH, Heidelberg, Germany). Agar plates were incubated overnight at 37°C, 5% CO2. CFU/larva was determined by visual inspection. Colony identity was verified on a random basis by colony PCR using ply-specific primers.

[3] = system: Detroit 562 cells infected with S. pneumoniae TIGR4; test: Cell-based infection model, bacterial CFU; parameters: species or system Streptococcus pneumoniae; conditions: MOI 5, 3 h at 37°C, n = 3
Description: Detroit 562 human pharyngeal epithelial cells were infected with S. pneumoniae TIGR4 at a multiplicity of infection (MOI) of 5. Cells were treated with 20 μM (RXR)4XB-anti-gyrA PNA or scrambled control PNA, respectively. As a positive control, 1 μg levofloxacin, corresponding to 3× MIC, was added. Following incubation for 3 h at 37°C, bacterial CFU counts were determined for CPP-antisense PNA-treated samples and compared to those in nontreated samples and in samples containing scrambled control PNAs (Fig. 4A). Treatment with (RXR)4XB-anti-gyrA caused a log CFU reduction of 1. Addition of levofloxacin led to a log CFU reduction of 2.
The human pharynx carcinoma epithelial cell line Detroit 562 (ATCC CCL138) was cultivated in Dulbecco’s modified Eagle medium (DMEM)/F12 (1:1) (Thermo Fisher Scientific, Schwerte, Germany) supplemented with 10% fetal bovine serum at 37°C and 5% CO2. Confluent Detroit 562 cells were infected with S. pneumoniae TIGR4 at an MOI of 5. Cultures were treated with 20 μM CPP-PNAs or 1 μg levofloxacin, respectively, and incubated for 3 h at 37°C, 5% CO2. After incubation, the supernatant was collected. Adherent cells were detached with Accutase solution (Merck KGaA, Darmstadt, Germany), collected by centrifugation for 10 min at 4,000 × g, and combined with the supernatant. Cells were pelleted by centrifugation, washed twice with PBS, and suspended in PBS. CFU/well was determined following serial dilution and plating on Todd Hewitt Broth, supplemented with Yeast, (THY) agar plates.

S. pneumoniae TIGR4 [4] = test: Bacterial killing assay (CFU/mL reduction after 6 h); type: cell-based, Streptococcus pneumoniae; conditions: TIGR4
Description: The impact of different CPPs on the efficacy of antisense PNAs targeting gyrA and rpoB in S. pneumoniae was tested using an in vitro killing assay ([25]). S. pneumoniae strains were incubated for 6 h with CPP-antisense PNA conjugates. We determined the reduction of bacterial CFU/mL caused by different CPP-coupled antisense PNA constructs compared to an untreated control. Three different CPPs were tested: HIV-1 TAT (TAT), oligolysin (K8), and (RXR)4XB (Table 1). Concentration-dependent bactericidal activity was investigated by treatment of S. pneumoniae TIGR4 in a CPP-antisense PNA conjugate concentration range of 2.5 to 20 μM (Fig. 1).
After culturing S. pneumoniae strains in BHI, D39 and 19F were diluted to approximately 10^5 CFU/mL in phosphate-buffered saline (PBS):BHI (93%:7%), while TIGR4 was diluted to approximately 10^5 CFU/mL in PBS:BHI (96%:4%). Next, 450-μL volumes of the respective bacterial suspensions, containing approximately 0.5× 10^5 CFU, were transferred to 2-mL reaction tubes. A 50-μL volume of PNA solution was added to a final PNA concentration of 1 to 20 μM or as indicated. Fifty μL H2O served as a mock control. The reaction tubes were incubated for 6 h at 37°C and 7 rpm (Rotor SB3; Stuart, Staffordshire, United Kingdom). The concentration of CPP-PNA that reduced CFU/mL by 50% after 6 h of incubation compared to an untreated control (IC50) was calculated by nonlinear regression analysis using GraphPad Prism software (GraphPad Software, San Diego, CA).

[5] = system: G. mellonella larvae infected with S. pneumoniae TIGR4; test: G. mellonella infection model, larval survival; type: in vivo, Galleria mellonella; conditions: 7 days; for Survival of infected larvae: 30 min postinfection, mock 19%, n = 40
Description: Antimicrobial efficiency of CPP-antisense PNA conjugates was evaluated in vivo employing a G. mellonella infection and treatment model ([22], [28]). Larvae were infected with S. pneumoniae strain TIGR4 and subsequently treated with 10 nmol CPP-anti-gyrA PNAs. Treatment with levofloxacin served as a positive control. Larval survival was observed over 7 days.
Larvae of the greater wax moth (G. mellonella) were obtained from Bugs-International GmbH (Irsingen/Unterfeld, Germany). For infection experiments, S. pneumoniae TIGR4 was grown for 7 h in BHI, washed twice in a 0.9% NaCl solution, and suspended in 0.9% NaCl to a final concentration of approximately 1 × 10^8 CFU/mL. Larvae weighing 150 to 200 mg were infected with 1 × 10^6 to 3 × 10^6 CFU/larva. Bacteria were injected into the hemocoel of the larvae between the last two pairs of prolegs using a microapplicator (World Precision Instruments, LLC, Sarasota, FL) and a fine-dosage syringe (Omnican-F, 0.01 to 1 mL, 0.30 × 12 mm; B. Braun AG, Melsungen, Germany). As mock control, 0.9% NaCl (PNA experiment) or 0.9% NaCl/3% DMSO (levofloxacin experiment) was injected. For CPP-PNA treatment, larvae were injected 30 min postinfection with 10 nmol CPP-PNA/larva. For levofloxacin treatment, larvae were injected 30 min postinfection with 1 or 10 μg levofloxacin/larva. Larvae were incubated for 7 days, and survival was monitored daily ([22]).

RXRRXRRXRRXRXB-eg-aatgattact [(RXR)4XB-anti-gyrA scPNA, (RXR)4XB-coupled scrambled control PNA for anti-gyrA]
Bacterial counts over time (in words) (S. pneumoniae TIGR4 [1]): did not cause reduced bacterial counts | log CFU reduction of bacterial load compared to mock-treated larvae ([2]; 10 nmol CPP-PNA/larva, n = 4 larvae per group, three experiments): no significant changes in the bacterial CFU | log CFU reduction in infected Detroit 562 cells ([3]; 20 μM CPP-PNA): No significant changes in bacterial CFU

TAT: unconjugated cell-penetrating peptide HIV-1 TAT (48–57) (GRKKRRQRRR; UniProt P04608 48-57, looked up, fragment) [reference compound]
Antibacterial effects of unconjugated CPP (in words) (S. pneumoniae TIGR4 [4]; Fig. S3): higher than those of the conjugated peptides

C[C@H]1COc2c(N3CCN(C)CC3)c(F)cc3c(=O)c(C(=O)O)cn1c23 [levofloxacin, reference compound]
Survival of infected larvae ([5]; 1 μg levofloxacin/larva (approx. 2.5× MIC)): 40% | Increase of survival rate ([5]; 1 μg levofloxacin/larva): 21% | Survival of infected larvae ([5]; 10 μg levofloxacin/larva (approx. 25× MIC)): 74% | log CFU reduction of bacterial load compared to mock-treated larvae ([2]; 1 μg levofloxacin): 2 | log CFU reduction of bacterial load compared to mock-treated larvae ([2]; 10 μg levofloxacin): 6 | log CFU reduction in infected Detroit 562 cells ([3]; 1 μg levofloxacin, corresponding to 3× MIC): 2

KKKKKKKK-eg-tgcattaata [K8-anti-gyrA PNA, Oligolysin (K8) coupled to antisense PNA against gyrA]
Reduction of bacterial CFU/mL compared to untreated control (in words) (S. pneumoniae TIGR4 [4]; 6 h, concentration range 2.5 to 20 μM, n = 5): no reduction of CFU/mL
